“Also recorded” adds a separate entry of the source.
Assays:
LVKAT = assay: Tryptophan fluorescence spectrofluorometric titration of sense peptides with antisense peptide LVKAT; assay type: binding
Procedure: Tryptophan fluorescence was used to detect binding of antisense pentapeptide LVKAT to the central binding region of α-MSH molecule. […] One was attributed to α-MSH and the other to its complex with antisense pentapeptide LVKAT. […] Consequently, the proposed model is given by Equation (1) and Equation (2), where Kd is the dissociation constant of the complex: […]
SENSE - LVKAT ⇄ SENSE + LVKAT(1)
(§1) Figure 2 A typical titration of 2.5 µM solution of α-MSH (sense) with LVKAT (antisense) at 25 °C, pH = 7.4, 10 mM phosphate buffer. The concentration of LVKAT was varied from 50 to 750 μM. Fluorescence units (f.u.) are given as a ratio of signals obtained from sample and reference PMTs. Inset: Fitting curve at 360 nm according to the Equation (1) and Equation (2).
as §1, with “Figure 3” for “Figure 2”, “of 25” for “of 2.5”, “of EHFRW” for “of α-MSH”, “to 500 µM.” for “to 750 μM.”
Fluorescence spectra were measured at 25 °C by OLIS RSM 1000F spectrofluorimeter (Olis, Bogart, GA, USA) equipped with thermostatted cell holder. […] Data obtained from the titrations were analyzed with the Specfit software package.

antibody to L-α-MSH = settings: ref [15],[16]; cited from earlier work
[1] = test system: acetaminophen (APAP)-induced liver lesions in male CBA mice; assay: Histopathological grading of acetaminophen (APAP)-induced liver lesions; assay type: in vivo; settings: mean ± SD; acetaminophen 150 mg/kg i.g.; α-MSH 2.5 mg/kg, LVKAT 0.8 mg/kg or their equimolar mixture i.p. 1 hour before; scored at 24 hours; 0 = no lesions, 5 = severe; group size 6-8; untreated controls 4.8 ± 0.46; α-MSH p < 0.05, LVKAT and mixture p > 0.05 vs controls
Procedure: (§2) Experimental animals were male CBA mice, 12-16 weeks old, weighing 20-25 g and bred at the Ruđer Bošković Institute. Experiments were performed according to the ILAR Guide for the Care and Use of Laboratory Animals, Council Directive 86/609/EEC, and Croatian Animal Protection Act (Official Gazette 135/06). The animals were kept in a room with dark-light cycle (12h/12h) and constant temperature (22 ± 1 °C). Hepatotoxicity was induced according to the slightly modified procedure of Guarner et al.. To induce hepatic drug-metabolizing enzymes mice were given 0.3 g/L phenobarbitone-sodium (Kemika, Zagreb, Croatia) for 7 days. […] (Krka, Novo Mesto, Slovenia) 150 mg/kg was given intragastrically (i.g.), via a gastric tube, in a volume of 0.5 mL. […] Control animals were treated with saline (0.9% NaCl). The size of experimental groups was 6-8. Mice that spontaneously died were excluded from histopathological or biochemical analysis. […] However, the difference was not statistically significant.
(§3) Sections of the liver were fixed in 10% phosphate buffered formalin, embedded in paraffin, sectioned at 4 µm, and stained with hematoxilin and eosin. […] Alanine aminotransferase (ALT) and aspartate aminotransferase (AST) activity was determined from plasma by standard laboratory techniques. […]

[2] = test system: acetaminophen-induced hepatotoxicity in male CBA mice; assay: Plasma alanine aminotransferase (ALT) activity 24 h after acetaminophen administration; assay type: in vivo; settings: mean ± SD; 24 h after acetaminophen 150 mg/kg i.g.; α-MSH 2.5 mg/kg, LVKAT 0.8 mg/kg or their equimolar mixture i.p. 1 hour before; group size 6-8; untreated controls 10087 ± 9595; α-MSH significantly lower, LVKAT and mixture p > 0.05; normal animals 37.7 ± 7.7
Procedure: as §2, §3

[3] = test system: acetaminophen-induced hepatotoxicity in male CBA mice; assay: Plasma aspartate aminotransferase (AST) activity 24 h after acetaminophen administration; assay type: in vivo; settings: mean ± SD; 24 h after acetaminophen 150 mg/kg i.g.; α-MSH 2.5 mg/kg, LVKAT 0.8 mg/kg or their equimolar mixture i.p. 1 hour before; group size 6-8; untreated controls 6091 ± 4275; α-MSH significantly lower, LVKAT and mixture p > 0.05; normal animals 109.3 ± 25.3
Procedure: as §2, §3

male CBA mice = assay: Spontaneous deaths in the acetaminophen hepatotoxicity model; assay type: in vivo; settings: starting number eight per group; acetaminophen 150 mg/kg i.g.; α-MSH 2.5 mg/kg, LVKAT 0.8 mg/kg or equimolar mixture i.p.; none died in control; difference not statistically significant
Procedure: as §2

[4] = test system: acetaminophen induced hepatotoxicity; settings: mouse model of acetaminophen induced hepatotoxicity; ref [15],[16]; cited from earlier work
Source text: Alpha-melanotropin (α-MSH) is an ancient, evolutionally conserved, tridecapeptide derived by the proteolytic cleavage from the pro-opiomelanocortin (POMC) hormone. It is currently the most widely studied melanocortin peptide in the context of tissue inflammation and cytoprotection. Recently, Turčić et al. […] Turčić et al. […] Sections of the liver were fixed in 10% phosphate buffered formalin, embedded in paraffin, sectioned at 4 µm, and stained with hematoxilin and eosin. Sections were examined by using light microscope, and grading of the liver lesions was done on 0-5 point scale according to Silva et al. (0 = no lesions, 1 = minimal, 2 = mild, 3 = moderate, 4 = marked and 5 = severe lesions). Alanine aminotransferase (ALT) and aspartate aminotransferase (AST) activity was determined from plasma by standard laboratory techniques. Plasma was sep ...

[5] = test system: hepatoprotective effects of α-MSH on the APAP induced hepatic lesions; assay: Modulation of α-MSH hepatoprotection by antisense peptide in vivo (overall); design: species or system male CBA mice
Procedure: as §2, §3

| Substance | binding to LVKAT in fluorescence titration (in words) (LVKAT; same experimental conditions as for α-MSH (25 °C, pH = 7.4, 10 mM phosphate buffer)) | binding to antibody to L-α-MSH (antibody to L-α-MSH) | stoichiometry of complex with LVKAT (LVKAT; SVD analysis of fluorescence titration spectra, Specfit, no higher order complexes) [complex formation] | liver lesion score (scale 0-5) [1] | blood (plasma) alanine aminotransferase (ALT) [2] [U/L] | blood (plasma) aspartate aminotransferase (AST) [3] [U/L] | animals that died spontaneously (male CBA mice) | hepatoprotective effect (in words) [4] | effect of LVKAT alone (hepatoprotection, in words) ([5]; LVKAT 0.8 mg/kg i.p. 1 hour before acetaminophen 150 mg/kg i.g., p > 0.05 vs untreated controls) | effect on hepatoprotection by α-MSH (in words) ([5]; LVKAT given with α-MSH (equimolar) i.p. 1 hour before acetaminophen 150 mg/kg i.g., histopathology, ALT and AST) |
| --- | --- | --- | --- | --- | --- | --- | --- | --- | --- | --- |
| Ac-SYSMEHFRWGKPV-NH2 [D-α-MSH, D-enantiomer of α-MSH] | very weak (if any) binding | does not bind antibody to L-α-MSH |  |  |  |  |  |  |  |  |
| Ac-SYSMEHFRWGKPV-NH2 [α-MSH, tridecapeptide derived by the proteolytic cleavage from the pro-opiomelanocortin (POMC) hormone] |  |  | 1 to 1 | 2 ± 0.75 | 585.8 ± 1424 | 539.5 ± 459.6 | none of the animals died | strong and dose dependent hepatoprotective effects; also recorded: potent hepatoprotective effects |  |  |
| LVKAT [pentapeptide antisense to central region of α-MSH that serves as the pharmacophore for melanocortin receptors] |  |  |  | 5 ± 0 |  |  |  |  | not hepatoprotective per se | abolishes hepatoprotective effects of α-MSH |
